32 compounds from article PMC7651859, “Identification of 6-amino-1H-pyrazolo[3,4-d]pyrimidines with in vivo efficacy against visceral leishmaniasis” (RSC Medicinal Chemistry, 2020) can be followed below.

In brackets after ≈: the same amount, converted by molar mass.

One data set relates to L. donovani amastigotes. The experiment in a line: Ld InMac intramacrophage Leishmania donovani assay. It counts as cell-based. The following applies: for EC50: Leishmania donovani, L. donovani amastigotes in THP-1 cells, mean of n ≥ 3, read-out: Ld InMac pEC50 (converted); for loss of potency (less active) versus comparator compound: versus matched comparator. From the text: (§1) For the identification of DDD853651/GSK3186899, which contained a trans-1,4-cyclohexyldiamine, a key strategy was to optimise the balance between potency in the intracellular Leishmania assay (L. donovani in THP-1 cells, referred to as Ld InMac assay[9]) and solubility.[10] In that case, we focused on 2 (Table 1), where the sulfonamide was required for potency but was poorly soluble. […] To this end, we examined a 4-aminopiperidine central unit with both sulfonamide and amide substituents (Table 1). […] We therefore selected 4 as a suitable start-point for further chemistry. […] We noted that either lengthening the linker to the aromatic ring, or removing it, led to a loss of activity (6 and 7 respectively).
(§2) Intramacrophage Leishmania donovani Assay

The test system of a further data set is THP-1 cells. The experiment in a line: THP-1 host cell toxicity readout of the Ld InMac assay. Format: cell-based. The following applies: Homo sapiens; host THP-1 cells; mean of n ≥ 3; read-out: THP-1 pEC50 (converted).
Excerpt: as §1, §2

Data set [1] is described as follows: CAD kinetic aqueous solubility. It counts as physicochemical. The note with it: pH 7.4, pH7.4 phosphate buffered saline. As to the method:
CAD Aqueous Solubility 11
5µl of 10mM DMSO stock solution is diluted to 100 µ l with pH7.4 phosphate buffered saline,
equilibrated for 1 hour at room temperature and filtered through Millipore MultiscreenHTS-PCF

Data set [2] is described as follows: Stability in mouse liver microsomes (intrinsic clearance). Format: in vitro ADME. The note with it: mouse liver microsomal intrinsic clearance, 0.5 μM. As to the method:
Stability in Microsomes 10
Test compound (0.5 μM) was incubated with female CD1 mouse (Xenotech) liver microsomes and their action started with addition of excess NADPH (8 mg/mL 50 mM potassium phosphate buffer, pH 7.4). Immediately, at time zero, then at 3, 6, 9, 15, and 30 min, an aliquot (50 μL) of the incubation mixture was removed and mixed with acetonitrile (100 μL) to stop the reaction.
Internal standard was added to all samples, the samples centrifuged to sediment precipitated protein, and the plates then sealed prior to UPLC-MS/MS analysis using a Xevo TQs micro (Waters Corporation, USA). XLfit (IDBS, UK) was used to calculate the exponential decay and consequently the rate constant (k) from the ratio of the peak area of test compound to internal standard at each time point. The rate of intrinsic clearance (Cl i) of each test compound was then calculated using the equation Cl i (mL/min/g liver) = k × V × microsomal protein yield, where V (mL/mg protein) is the incubation volume/mg protein added and […]
microsomal protein yield is taken as 52.5 mg protein/g liver. Verapamil (0.5 μM) was used as a positive control to confirm acceptable assay performance. […]
(In general: Microsomes from liver hold many membrane-bound enzymes, among them those of drug oxidation.)

Broadly, the solubility is the concentration that dissolves in the medium under given conditions. A lower solubility goes with little dissolved substance. Take `CC(C)Cc1n[nH]c2nc(N[C@H]3CC[C@H](NC(=O)Cc4ccccc4)CC3)ncc12` [Compound 3]: the EC50 in the data set on L. donovani amastigotes and in the data set with THP-1 cells was more than 50.1 µM each time. Besides, the solubility at 1 h in data set [1] was 51 µM (≈ 20.7 µg/mL).
As for `CC(C)Cc1n[nH]c2nc(NC3CCN(C(=O)Cc4ccccc4)CC3)ncc12` [Compound 4], the “more active than comparator compound” value in the data set with L. donovani amastigotes (Ld InMac, 4 versus 3) was more than 10 fold. The results for the EC50 in the data set on L. donovani amastigotes and in the data set on THP-1 cells were 7.94 µM and more than 50.1 µM, respectively. In data set [1], the solubility at 1 h is 59 µM (≈ 23.2 µg/mL). The Cli mouse in data set [2] is 18 ml min^–1 g^–1.
In the case of `CC(C)Cc1n[nH]c2nc(NC3CCN(S(=O)(=O)Cc4ccccc4)CC3)ncc12` [Compound 5], the “loss of potency (less active) versus comparator compound” value in the data set with L. donovani amastigotes (Ld InMac) is given as more than 10 fold. Besides, the EC50 with L. donovani amastigotes is 12.6 µM; with THP-1 cells it was more than 50.1 µM. This compound also showed a solubility at 1 h in data set [1] of 10 µM (≈ 4.29 µg/mL). Further, in data set [2], the Cli mouse is listed as more than 50 ml min^–1 g^–1.
`CC(C)Cc1n[nH]c2nc(NC3CCN(C(=O)CCc4ccccc4)CC3)ncc12` [Compound 6]: the EC50 is 20 µM in the data set on L. donovani amastigotes and more than 50.1 µM with THP-1 cells.
For the compound `CC(C)Cc1n[nH]c2nc(NC3CCN(C(=O)c4ccccc4)CC3)ncc12` [Compound 7], the EC50 in the data set with L. donovani amastigotes and in the data set with THP-1 cells was more than 50.1 µM throughout. The same compound showed a solubility at 1 h in data set [1] of 291 µM (≈ 110 µg/mL). In data set [2], the Cli mouse came to 7 ml min^–1 g^–1.
In the case of `CC(C)Cc1n[nH]c2nc(NC3CCN(C(=O)Cc4ccc(F)cc4F)CC3)ncc12` [Compound 8], the EC50 in the data set with L. donovani amastigotes was 1.58 µM; with THP-1 cells, more than 50.1 µM. Besides, the solubility at 1 h in data set [1] stood at 26 µM (≈ 11.1 µg/mL). In addition, the Cli mouse in data set [2] amounted to 12 ml min^–1 g^–1.
The matching figures for `CC(C)Cc1n[nH]c2nc(NC3CCN(C(=O)Cc4ccc(Cl)cc4Cl)CC3)ncc12` [Compound 9]: 10 µM, more than 50.1 µM, 26 µM (≈ 12 µg/mL) and 30 ml min^–1 g^–1.
Consider `CC(C)Cc1n[nH]c2nc(NC3CCN(C(=O)C(C)c4ccccc4)CC3)ncc12` (centres unmarked) [Compound 10], for which the EC50 with L. donovani amastigotes was 5.01 µM; in the data set with THP-1 cells, more than 50.1 µM. The compound further yielded a solubility at 1 h in data set [1] of 140 µM (≈ 56.9 µg/mL).
On to `CC(C)(C)Cc1n[nH]c2nc(NC3CCN(C(=O)Cc4ccc(F)cc4F)CC3)ncc12` [Compound 11], for which the EC50 in the data set on L. donovani amastigotes and in the data set on THP-1 cells was more than 50.1 µM each time. The compound also displayed a solubility at 1 h in data set [1] of 27 µM (≈ 11.9 µg/mL). Moreover, the Cli mouse in data set [2] was 22.0 ml min^–1 g^–1.
Take `O=C(Cc1ccc(F)cc1F)N1CCC(Nc2ncc3c(C4CC4)n[nH]c3n2)CC1` [Compound 12]: the EC50 in the data set on L. donovani amastigotes was 1.26 µM; in the data set on THP-1 cells, more than 50.1 µM. In addition, the solubility at 1 h in data set [1] was determined as 39 µM (≈ 16.1 µg/mL). In data set [2], this compound registered a Cli mouse of 5.0 ml min^–1 g^–1.
As to `O=C(Cc1ccc(F)cc1F)N1CCC(Nc2ncc3c(CN4CCOCC4)n[nH]c3n2)CC1` [Compound 14], the EC50 in the data set with L. donovani amastigotes is 25.1 µM; in the data set with THP-1 cells, more than 50.1 µM. In data set [2], this compound gave a Cli mouse of less than 0.5 ml min^–1 g^–1.
As to `CC(C)Oc1n[nH]c2nc(NC3CCN(C(=O)Cc4ccc(F)cc4F)CC3)ncc12` [Compound 16], the EC50 is 6.31 µM in the data set on L. donovani amastigotes and more than 50.1 µM with THP-1 cells. Also, the solubility at 1 h in data set [1] amounted to 33 µM (≈ 14.2 µg/mL).
As to `CC(C)Cc1n[nH]c2nc(N(C)C3CCN(C(=O)Cc4ccc(F)cc4F)CC3)ncc12` [Compound 22], in the data set with L. donovani amastigotes (Ld InMac), the “loss of potency (less active) versus comparator compound” value is listed as more than 10 fold. The EC50 in the data set with L. donovani amastigotes and in the data set on THP-1 cells was more than 50.1 µM in each case.
For the compound `COc1ccccc1-c1n[nH]c2nc(OC3CCN(C(=O)Cc4ccc(F)cc4F)CC3)ncc12` [Compound 23], in the data set with L. donovani amastigotes (Ld InMac), the “loss of potency (less active) versus comparator compound” value is recorded as more than 10 fold. For the same compound, the values for the EC50 in the data set with L. donovani amastigotes and in the data set with THP-1 cells were 20 µM and more than 50.1 µM, respectively.
Turning to `CC(C)Cc1nn(C)c2nc(NC3CCN(C(=O)Cc4ccc(F)cc4F)CC3)ncc12` [Compound 24], the “loss of potency (less active) versus comparator compound” value in the data set on L. donovani amastigotes (Ld InMac) is given as more than 10 fold. The EC50 in the data set with L. donovani amastigotes and in the data set with THP-1 cells was more than 50.1 µM each time.
Consider `CC(C)Cc1noc2nc(NC3CCN(C(=O)Cc4ccc(F)cc4F)CC3)ncc12` [Compound 25], for which the “loss of potency (less active) versus comparator compound” value in the data set on L. donovani amastigotes (Ld InMac) was more than 10 fold. The EC50 with L. donovani amastigotes and in the data set on THP-1 cells was more than 50.1 µM throughout.
Take `COc1ccccc1-c1c[nH]c2nc(NC3CCN(C(=O)Cc4ccc(F)cc4F)CC3)ncc12` [Compound 26]: the “loss of potency (less active) versus comparator compound” value with L. donovani amastigotes (Ld InMac) is given as more than 10 fold. The EC50 in the data set with L. donovani amastigotes and in the data set on THP-1 cells was more than 50.1 µM throughout.
As to `COc1ccccc1C(=O)c1cnc(NC2CCN(C(=O)Cc3ccc(F)cc3F)CC2)nc1N` [Compound 27], the figures for the EC50 in the data set with L. donovani amastigotes and in the data set with THP-1 cells were 6.31 µM and 10 µM, respectively.
The matching figures for `COc1ccccc1C(=O)c1cnc(NC2CCN(C(=O)Cc3ccc(F)cc3F)CC2)nc1` [Compound 28]: 6.31 µM and more than 50.1 µM.
For the compound `O=C(Cc1ccc(F)cc1F)N1CCC[C@H](Nc2ncc3c(-c4ccccn4)n[nH]c3n2)C1` [Compound 29], the EC50 is 12.6 µM in the data set with L. donovani amastigotes and more than 50.1 µM with THP-1 cells.
In the case of `O=C(Cc1ccc(F)cc1F)N1CCC[C@@H](Nc2ncc3c(-c4ccccn4)n[nH]c3n2)C1` [Compound 30], the EC50 with L. donovani amastigotes and with THP-1 cells was more than 50.1 µM throughout.
On to `COc1ccccc1-c1n[nH]c2nc(N[C@H]3CCC[C@@H](NC(=O)Cc4ccc(F)cc4F)C3)ncc12` [Compound 31], for which the results for the EC50 with L. donovani amastigotes and in the data set with THP-1 cells were 31.6 µM and 25.1 µM, respectively.
As for `COc1ccccc1-c1n[nH]c2nc(N[C@H]3CCC[C@H](NC(=O)Cc4ccc(F)cc4F)C3)ncc12` [Compound 32], the EC50 in the data set with L. donovani amastigotes was 15.8 µM; in the data set with THP-1 cells, 31.6 µM.
For the compound `COc1ccccc1-c1n[nH]c2nc(NC3(C)CCN(C(=O)Cc4ccc(F)cc4F)CC3)ncc12` [Compound 33], the EC50 with L. donovani amastigotes is 3.98 µM; with THP-1 cells, 39.8 µM.
On the same counts, the results for `O=C(Cc1ccc(F)cc1F)N1CCC(CNc2ncc3c(-c4ccccn4)n[nH]c3n2)CC1` [Compound 34] are more than 50.1 µM and more than 50.1 µM.
On the same counts, the results for `COc1ccccc1-c1n[nH]c2nc(NCC3CN(C(=O)Cc4ccc(F)cc4F)C3)ncc12` [Compound 35] are more than 50.1 µM and more than 50.1 µM.
On the same counts, the results for `CC(C)(CNC(=O)Cc1ccc(F)cc1F)Nc1ncc2c(-c3ccccn3)n[nH]c2n1` [Compound 36] are more than 50.1 µM and more than 50.1 µM.
Regarding `COc1ccccc1-c1n[nH]c2nc(NC3CCN(C(=O)OCc4ccccc4)CC3)ncc12` [Compound 39], the EC50 with L. donovani amastigotes is 0.398 µM; with THP-1 cells, more than 50.1 µM. In addition, in data set [2], the Cli mouse came out at 9 ml min^–1 g^–1.
Take `O=C(CC1CC1)N1CCC(Nc2ncc3c(-c4ccccn4)n[nH]c3n2)CC1` [Compound 45]: the EC50 with L. donovani amastigotes was 5.01 µM; in the data set on THP-1 cells, more than 50.1 µM. The same compound gave a solubility at 1 h in data set [1] not below 392 µM.
For the compound `O=C(CC1CC1)N1CCC(Nc2ncc3c(N4CCOCC4)n[nH]c3n2)CC1` [Compound 46], the figures for the EC50 in the data set on L. donovani amastigotes and in the data set with THP-1 cells were 15.8 µM and more than 50.1 µM, respectively.
Take `C[C@@H]1[C@H](O)[C@@H](C)/C=C/C=C/C=C/C=C/C=C/C=C/C=C/[C@H](O[C@@H]2O[C@H](C)[C@@H](O)[C@H](N)[C@@H]2O)C[C@@H]2O[C@](O)(C[C@@H](O)C[C@@H](O)[C@H](O)CC[C@@H](O)C[C@@H](O)CC(=O)O[C@H]1C)C[C@H](O)[C@H]2C(=O)O` [amphotericin B, reference compound]: the EC50 in the data set with L. donovani amastigotes was 0.2 µM.
The same measure, in the same setting: the same measure for `CCCCCCCCCCCCCCCCOP(=O)([O-])OCC[N+](C)(C)C` [miltefosine, reference compound]: 0.794 µM.
